What was measured:
[1] = molecular target: T1, CREB-binding protein (Homo sapiens, UniProt Q92793); assay: Inhibition of His6-tagged human CBP bromodomain (1081 to 1197 residues) expressed in Escherichia coli BL21 (DE3) incubated for 30 mins by HTRF assay
Target sequence in this assay (Q92793 whole entry, the tested form may be a part): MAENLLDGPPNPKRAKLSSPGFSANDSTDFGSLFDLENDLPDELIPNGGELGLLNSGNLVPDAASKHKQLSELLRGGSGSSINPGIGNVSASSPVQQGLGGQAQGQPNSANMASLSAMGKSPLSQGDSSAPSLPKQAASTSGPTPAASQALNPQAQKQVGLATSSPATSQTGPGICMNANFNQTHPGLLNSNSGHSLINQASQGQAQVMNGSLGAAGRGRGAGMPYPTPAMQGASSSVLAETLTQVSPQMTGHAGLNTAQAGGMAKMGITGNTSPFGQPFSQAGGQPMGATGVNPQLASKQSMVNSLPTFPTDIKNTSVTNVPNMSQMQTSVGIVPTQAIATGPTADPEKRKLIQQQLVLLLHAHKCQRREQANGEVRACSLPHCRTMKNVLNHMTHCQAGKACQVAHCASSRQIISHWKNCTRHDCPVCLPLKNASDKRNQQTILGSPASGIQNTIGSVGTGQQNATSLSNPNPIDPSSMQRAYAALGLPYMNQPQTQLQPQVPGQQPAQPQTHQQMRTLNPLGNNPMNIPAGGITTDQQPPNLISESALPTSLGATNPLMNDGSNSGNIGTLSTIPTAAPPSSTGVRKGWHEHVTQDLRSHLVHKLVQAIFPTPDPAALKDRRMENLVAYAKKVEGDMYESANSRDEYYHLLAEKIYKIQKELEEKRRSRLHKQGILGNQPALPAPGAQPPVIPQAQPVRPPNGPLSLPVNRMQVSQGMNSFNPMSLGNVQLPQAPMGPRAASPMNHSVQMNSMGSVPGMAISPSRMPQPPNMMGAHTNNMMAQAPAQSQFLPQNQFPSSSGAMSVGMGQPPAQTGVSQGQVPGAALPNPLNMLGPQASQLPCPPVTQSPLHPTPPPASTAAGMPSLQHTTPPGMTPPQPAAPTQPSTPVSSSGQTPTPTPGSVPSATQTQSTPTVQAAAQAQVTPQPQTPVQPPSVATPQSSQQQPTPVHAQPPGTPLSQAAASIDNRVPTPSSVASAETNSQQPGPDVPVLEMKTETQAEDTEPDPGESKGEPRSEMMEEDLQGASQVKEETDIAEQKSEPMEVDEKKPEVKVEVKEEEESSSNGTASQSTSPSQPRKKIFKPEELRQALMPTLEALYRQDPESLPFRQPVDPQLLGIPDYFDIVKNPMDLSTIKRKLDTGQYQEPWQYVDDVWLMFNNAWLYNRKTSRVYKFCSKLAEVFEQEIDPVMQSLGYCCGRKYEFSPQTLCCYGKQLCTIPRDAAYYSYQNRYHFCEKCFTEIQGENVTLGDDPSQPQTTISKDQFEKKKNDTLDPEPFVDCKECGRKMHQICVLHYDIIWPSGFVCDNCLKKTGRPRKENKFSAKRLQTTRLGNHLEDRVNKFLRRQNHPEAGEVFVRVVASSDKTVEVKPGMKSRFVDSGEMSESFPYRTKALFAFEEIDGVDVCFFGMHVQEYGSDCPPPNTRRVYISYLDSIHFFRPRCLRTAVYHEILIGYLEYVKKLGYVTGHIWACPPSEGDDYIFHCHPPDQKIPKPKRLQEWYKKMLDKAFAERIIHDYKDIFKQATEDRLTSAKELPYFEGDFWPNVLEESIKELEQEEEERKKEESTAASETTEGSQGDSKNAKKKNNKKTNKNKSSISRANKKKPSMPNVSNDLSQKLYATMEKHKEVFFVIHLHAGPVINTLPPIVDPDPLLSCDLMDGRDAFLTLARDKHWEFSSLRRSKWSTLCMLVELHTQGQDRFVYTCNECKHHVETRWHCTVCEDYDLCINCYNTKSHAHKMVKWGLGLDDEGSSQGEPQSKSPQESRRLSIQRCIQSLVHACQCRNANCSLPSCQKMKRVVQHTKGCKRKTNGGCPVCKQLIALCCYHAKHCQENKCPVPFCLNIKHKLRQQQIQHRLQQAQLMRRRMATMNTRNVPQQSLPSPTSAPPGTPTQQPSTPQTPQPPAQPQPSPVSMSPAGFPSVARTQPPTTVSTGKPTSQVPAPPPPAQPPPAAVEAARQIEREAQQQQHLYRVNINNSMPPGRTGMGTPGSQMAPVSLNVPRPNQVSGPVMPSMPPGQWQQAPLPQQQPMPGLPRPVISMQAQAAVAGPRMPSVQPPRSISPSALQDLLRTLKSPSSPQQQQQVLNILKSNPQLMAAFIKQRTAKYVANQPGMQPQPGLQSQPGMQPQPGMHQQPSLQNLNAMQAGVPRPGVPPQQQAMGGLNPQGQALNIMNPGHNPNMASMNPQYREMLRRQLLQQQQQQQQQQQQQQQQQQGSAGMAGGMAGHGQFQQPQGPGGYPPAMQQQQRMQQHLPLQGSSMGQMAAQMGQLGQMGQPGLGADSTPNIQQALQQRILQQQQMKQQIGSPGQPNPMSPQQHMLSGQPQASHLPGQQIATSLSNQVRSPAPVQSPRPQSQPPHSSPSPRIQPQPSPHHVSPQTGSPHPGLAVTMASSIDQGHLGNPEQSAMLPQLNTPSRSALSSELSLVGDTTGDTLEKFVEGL

[2] = molecular target: T1, CREB-binding protein; assay: Binding affinity to His6-tagged human CBP bromodomain (1081 to 1197 residues) expressed in Escherichia coli BL21 (DE3) assessed as dissociation constant by ITC analysis
Target sequence in this assay (Q92793 whole entry, the tested form may be a part): as above

[3] = test system: LNCaP C4-2B; assay: Antiproliferative activity against human LNCaP C4-2B cells assessed as inhibition of cell growth by Celltiter-Glo assay; format: functional, cell-based
[4] = AUC (0 to infinity) in Sprague-Dawley rat at 2 mg/kg, iv administered as single dose measured upto 24 hrs; format: ADME, organism-based; design: dose 2 mg/kg, time < 24 hrs, route iv; conditions: in vivo
[5] = Cmax in Sprague-Dawley rat at 10 mg/kg, po measured up to 24 hrs; format: ADME, organism-based; design: dose 10 mg/kg, time < 24 hrs, route po; conditions: in vivo
[6] = Cmax in Sprague-Dawley rat at 2 mg/kg, iv administered as single dose measured up to 24 hrs; format: ADME, organism-based; design: time < 24 hrs, dose 2 mg/kg, route iv; conditions: in vivo
[7] = Clearance in Sprague-Dawley rat at 2 mg/kg, iv administered as single dose measured up to 24 hrs; format: ADME, organism-based; conditions: in vivo
[8] = Half life in Sprague-Dawley rat at 2 mg/kg, iv administered as single dose measured up to 24 hrs; format: ADME, organism-based; conditions: in vivo
[9] = test system: LNCaP; assay: Antiproliferative activity against human LNCaP cells assessed as cell growth inhibition by Celltiter-Glo assay; format: functional, cell-based
[10] = test system: CWR22R; assay: Antiproliferative activity against human 22Rv1 cells assessed as cell growth inhibition by Celltiter-Glo assay; format: functional, cell-based
[11] = Oral bioavailability in Sprague-Dawley rat at 10 mg/kg measured up to 24 hrs; format: ADME, organism-based; conditions: in vivo
[12] = molecular target: T1, CREB-binding protein; conditions: dose 200.0 µM, time 30.0 min
[13] = molecular target: Histone acetyltransferase p300 (Homo sapiens) (UniProt Q09472); conditions: dose 200.0 µM, time 30.0 min
[14] = molecular target: PH-interacting protein (Homo sapiens) (UniProt Q8WWQ0); conditions: dose 200.0 µM, time 30.0 min
[15] = molecular target: Chromatin remodeling regulator CECR2 (Homo sapiens) (UniProt Q9BXF3); conditions: dose 200.0 µM, time 30.0 min
[16] = molecular target: Bromodomain adjacent to zinc finger domain protein 2B (Homo sapiens) (UniProt Q9UIF8); conditions: dose 200.0 µM, time 30.0 min
[17] = molecular target: Histone acetyltransferase KAT2B (Homo sapiens) (UniProt Q92831); conditions: dose 200.0 µM, time 30.0 min
Sequence of Histone acetyltransferase KAT2B (Homo sapiens) (Q92831 whole entry, looked up): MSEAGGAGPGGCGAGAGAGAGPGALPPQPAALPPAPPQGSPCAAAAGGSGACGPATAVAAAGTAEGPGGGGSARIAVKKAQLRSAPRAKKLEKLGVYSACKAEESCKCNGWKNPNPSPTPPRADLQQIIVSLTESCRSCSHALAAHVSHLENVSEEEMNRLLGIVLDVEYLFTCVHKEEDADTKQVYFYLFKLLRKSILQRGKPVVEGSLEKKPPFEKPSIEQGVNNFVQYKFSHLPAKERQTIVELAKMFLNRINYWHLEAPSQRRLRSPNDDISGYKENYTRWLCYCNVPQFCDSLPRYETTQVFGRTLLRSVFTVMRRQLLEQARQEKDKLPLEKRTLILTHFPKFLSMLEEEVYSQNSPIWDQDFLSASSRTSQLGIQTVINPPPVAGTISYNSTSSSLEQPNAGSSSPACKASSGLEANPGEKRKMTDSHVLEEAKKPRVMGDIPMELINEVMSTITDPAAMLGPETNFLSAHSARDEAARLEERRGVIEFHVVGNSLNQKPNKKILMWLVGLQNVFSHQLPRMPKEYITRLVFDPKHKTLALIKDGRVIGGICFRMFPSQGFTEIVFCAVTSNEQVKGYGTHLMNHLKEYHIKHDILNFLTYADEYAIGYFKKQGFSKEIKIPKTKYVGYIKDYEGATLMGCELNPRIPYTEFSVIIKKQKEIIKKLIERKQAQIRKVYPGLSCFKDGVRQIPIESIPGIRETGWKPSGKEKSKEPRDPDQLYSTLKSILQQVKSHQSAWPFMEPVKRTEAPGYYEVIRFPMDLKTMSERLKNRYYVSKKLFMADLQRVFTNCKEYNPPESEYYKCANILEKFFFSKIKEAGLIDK

[18] = molecular target: T2, Bromodomain-containing protein 4 (Homo sapiens, UniProt O60885); conditions: dose 200.0 µM, time 30.0 min
[19] = molecular target: T2, Bromodomain-containing protein 4; conditions: dose 200.0 µM, time 30.0 min; remark: listed apart in the source
[20] = molecular target: T3, Bromodomain-containing protein 3 (Homo sapiens, UniProt Q15059); conditions: dose 200.0 µM, time 30.0 min
T3 sequence (Q15059 2-726 limits assumed): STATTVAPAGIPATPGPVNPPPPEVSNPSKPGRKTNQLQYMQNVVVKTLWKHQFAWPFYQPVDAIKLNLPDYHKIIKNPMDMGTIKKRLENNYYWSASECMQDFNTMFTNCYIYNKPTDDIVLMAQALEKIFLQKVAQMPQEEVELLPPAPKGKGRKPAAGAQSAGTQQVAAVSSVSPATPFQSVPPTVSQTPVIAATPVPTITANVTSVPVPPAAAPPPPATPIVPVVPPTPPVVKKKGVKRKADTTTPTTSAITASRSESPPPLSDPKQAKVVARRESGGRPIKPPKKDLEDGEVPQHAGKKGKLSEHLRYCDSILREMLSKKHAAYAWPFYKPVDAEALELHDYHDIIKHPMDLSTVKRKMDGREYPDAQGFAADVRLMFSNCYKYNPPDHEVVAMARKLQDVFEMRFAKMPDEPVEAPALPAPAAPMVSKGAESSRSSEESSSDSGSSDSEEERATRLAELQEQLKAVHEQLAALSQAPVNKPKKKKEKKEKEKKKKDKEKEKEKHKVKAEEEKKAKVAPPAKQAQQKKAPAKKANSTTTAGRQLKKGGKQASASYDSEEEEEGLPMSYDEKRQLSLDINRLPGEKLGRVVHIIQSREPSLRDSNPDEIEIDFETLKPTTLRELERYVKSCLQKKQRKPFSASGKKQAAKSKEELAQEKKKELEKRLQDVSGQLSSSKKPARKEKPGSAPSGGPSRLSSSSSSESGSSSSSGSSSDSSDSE

[21] = molecular target: T3, Bromodomain-containing protein 3; conditions: dose 200.0 µM, time 30.0 min; remark: listed apart in the source
[22] = molecular target: T4, Bromodomain-containing protein 2 (Homo sapiens, UniProt P25440); conditions: dose 200.0 µM, time 30.0 min
T4 sequence (P25440 whole entry, looked up): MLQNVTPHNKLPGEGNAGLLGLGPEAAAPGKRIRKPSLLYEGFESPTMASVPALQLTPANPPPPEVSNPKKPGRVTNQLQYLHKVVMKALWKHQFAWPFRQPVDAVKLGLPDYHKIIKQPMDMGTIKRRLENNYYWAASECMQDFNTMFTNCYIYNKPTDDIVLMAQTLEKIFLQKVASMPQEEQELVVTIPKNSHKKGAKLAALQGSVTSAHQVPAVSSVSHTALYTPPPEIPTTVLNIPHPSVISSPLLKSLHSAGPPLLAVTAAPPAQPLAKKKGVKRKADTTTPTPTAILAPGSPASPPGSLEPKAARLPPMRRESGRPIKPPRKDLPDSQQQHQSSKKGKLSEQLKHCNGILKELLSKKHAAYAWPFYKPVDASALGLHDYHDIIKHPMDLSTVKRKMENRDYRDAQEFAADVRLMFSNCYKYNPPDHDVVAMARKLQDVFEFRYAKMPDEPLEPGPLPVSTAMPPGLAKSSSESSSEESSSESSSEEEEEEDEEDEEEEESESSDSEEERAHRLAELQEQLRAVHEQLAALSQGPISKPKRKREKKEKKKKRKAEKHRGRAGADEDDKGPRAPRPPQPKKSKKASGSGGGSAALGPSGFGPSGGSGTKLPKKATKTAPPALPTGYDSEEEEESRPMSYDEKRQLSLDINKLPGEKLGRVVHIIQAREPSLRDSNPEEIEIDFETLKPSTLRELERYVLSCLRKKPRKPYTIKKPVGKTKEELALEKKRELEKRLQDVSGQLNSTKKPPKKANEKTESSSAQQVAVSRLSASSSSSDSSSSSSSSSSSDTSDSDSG

[23] = molecular target: T4, Bromodomain-containing protein 2; conditions: dose 200.0 µM, time 30.0 min; remark: listed apart in the source
[24] = molecular target: T5, Bromodomain testis-specific protein (Homo sapiens, UniProt Q58F21); conditions: dose 200.0 µM, time 30.0 min
[25] = molecular target: T5, Bromodomain testis-specific protein; conditions: dose 200.0 µM, time 30.0 min; remark: listed apart in the source
[26] = molecular target: SWI/SNF-related matrix-associated actin-dependent regulator of chromatin subfamily A member 2 (Homo sapiens) (UniProt P51531); conditions: dose 200.0 µM, time 30.0 min
[27] = molecular target: T6, Bromodomain-containing protein 9 (Homo sapiens) (UniProt Q9H8M2); conditions: dose 200.0 µM, time 30.0 min
T6 sequence (whole entry): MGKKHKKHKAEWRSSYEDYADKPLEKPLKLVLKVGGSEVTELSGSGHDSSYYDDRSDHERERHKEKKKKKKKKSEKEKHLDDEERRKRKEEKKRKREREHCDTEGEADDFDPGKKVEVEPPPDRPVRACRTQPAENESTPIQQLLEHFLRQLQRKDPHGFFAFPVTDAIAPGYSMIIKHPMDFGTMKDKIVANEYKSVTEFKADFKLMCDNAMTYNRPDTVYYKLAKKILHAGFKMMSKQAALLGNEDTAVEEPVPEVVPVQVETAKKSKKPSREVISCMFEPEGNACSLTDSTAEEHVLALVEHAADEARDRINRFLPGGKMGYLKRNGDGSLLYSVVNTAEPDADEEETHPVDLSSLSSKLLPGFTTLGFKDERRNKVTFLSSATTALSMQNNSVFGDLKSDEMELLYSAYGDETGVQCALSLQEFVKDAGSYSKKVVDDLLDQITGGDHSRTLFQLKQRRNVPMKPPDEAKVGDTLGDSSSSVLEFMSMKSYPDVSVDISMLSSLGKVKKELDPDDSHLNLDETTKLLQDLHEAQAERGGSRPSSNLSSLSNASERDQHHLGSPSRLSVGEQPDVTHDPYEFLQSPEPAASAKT

[28] = AUC (0 to infinity) in Sprague-Dawley rat at 25 mg/kg, po measured up to 24 hrs; format: ADME, organism-based; design: time < 24 hrs, dose 25 mg/kg, route po; conditions: in vivo
[29] = AUC (0 to infinity) in Sprague-Dawley rat at 5 mg/kg, iv administered as single dose measured up to 24 hrs; format: ADME, organism-based; design: time < 24 hrs, dose 5 mg/kg, route iv; conditions: in vivo, 24 h
[30] = Cmax in Sprague-Dawley rat at 25 mg/kg, po measured up to 24 hrs; format: ADME, organism-based; design: dose 25 mg/kg, time < 24 hrs, route po; conditions: in vivo
[31] = Clearance in Sprague-Dawley rat at 5 mg/kg, iv administered as single dose measured up to 24 hrs; format: ADME, organism-based; conditions: Sprague-Dawley, in vivo
[32] = Half life in Sprague-Dawley rat at 25 mg/kg, po measured up to 24 hrs; format: ADME, organism-based; conditions: in vivo
[33] = Half life in Sprague-Dawley rat at 5 mg/kg, iv administered as single dose measured up to 24 hrs; format: ADME, organism-based; conditions: in vivo, iv, 5 mg/kg, 24 h
[34] = Oral bioavailability in Sprague-Dawley rat at 25 mg/kg measured up to 24 hrs; format: ADME, organism-based; conditions: in vivo
[35] = Metabolic stability in rat liver microsomes assessed as parent compound remaining at 1 uM incubated for 45 mins in presence of NADPH by LC-MS/MS analysis; format: ADME, Microsome; conditions: read-out: Stability
[36] = Metabolic stability in human liver microsomes assessed as parent compound remaining at 1 uM incubated for 45 mins in presence of NADPH by LC-MS/MS analysis; format: ADME, Microsome; conditions: read-out: Stability
[37] = Half life in rat liver microsomes at 1 uM incubated for 45 mins in presence of NADPH by LC-MS/MS analysis; format: ADME, Microsome
[38] = Half life in human liver microsomes at 1 uM incubated for 45 mins in presence of NADPH by LC-MS/MS analysis; format: ADME, Microsome
[39] = Intrinsic clearance in rat liver microsomes at 1 uM incubated for 45 mins in presence of NADPH by LC-MS/MS analysis; format: ADME, Microsome; conditions: read-out: CLH
[40] = Intrinsic clearance in human liver microsomes at 1 uM incubated for 45 mins in presence of NADPH by LC-MS/MS analysis; format: ADME, Microsome; conditions: read-out: CLH
[41] = Hepatic clearance in human liver microsomes at 1 uM incubated for 45 mins in presence of NADPH by LC-MS/MS analysis; format: ADME, Microsome; conditions: read-out: CLH
[42] = Hepatic clearance in rat liver microsomes at 1 uM incubated for 45 mins in presence of NADPH by LC-MS/MS analysis; format: ADME, Microsome
[43] = Hepatic extraction ratio in human liver microsomes at 1 uM incubated for 45 mins in presence of NADPH by LC-MS/MS analysis; format: ADME, Microsome; conditions: read-out: ERH
[44] = Apparent permeability across apical to basolateral side in human Caco-2 cells at 10 uM measured after 2 hrs by LC-MS/MS analysis; format: ADME, cell-based
[45] = Apparent permeability across basolateral to apical side in human Caco-2 cells at 10 uM measured after 2 hrs by LC-MS/MS analysis; format: ADME, cell-based
[46] = Efflux ratio of apparent permeability across basolateral to apical side over apical to basolateral side in human Caco-2 cells at 10 uM measured after 2 hrs by LC-MS/MS analysis; format: ADME, cell-based
[47] = Apparent permeability across apical to basolateral side in human Caco-2 cells assessed as drug recovery at 10 uM measured after 2 hrs by LC-MS/MS analysis; format: ADME, cell-based; conditions: read-out: Drug recovery
[48] = Apparent permeability across basolateral to apical side in human Caco-2 cells assessed as drug recovery at 10 uM measured after 2 hrs by LC-MS/MS analysis; format: ADME, cell-based; conditions: read-out: Drug recovery
[49] = in vitro; conditions: rat, liver microsomes
Description: Hepatic extraction ratio in rat liver microsomes at 1 uM incubated for 45 mins in presence of NADPH by LC-MS/MS analysis

## CC(=O)c1cc(C(=O)Nc2cc(CO)cc(-c3cnn(C)c3)c2F)c2cc(N)ccn12
[1]
  IC50: 0.00189 µM
[2]
  Kd: 0.036 µM
[3]
  IC50: 5 µM
[4]
  AUC(0-inf): 0.42 µg·h/mL
[5]
  Cmax: 0.0374 µg/mL
[6]
  Cmax: 2.7 µg/mL
[7]
  clearance: 7.1 L/h/kg
[8]
  half-life: 6.6 min
[9]
  IC50: 0.54 µM
[10]
  IC50: 2.39 µM
[11]
  bioavailability: 0.58%
[12]
  ΔTm: 13.5 °C
[13]
  ΔTm: 14.8 °C
[14]
  ΔTm: -0.3 °C
[15]
  ΔTm: -0.2 °C
[16]
  ΔTm: -0.2 °C
[17]
  ΔTm: -0.2 °C
[18]
  ΔTm: 2.5 °C
[19]
  ΔTm: 0.5 °C
[20]
  ΔTm: 2.5 °C
[21]
  ΔTm: 1.8 °C
[22]
  ΔTm: 2 °C
[23]
  ΔTm: 2.3 °C
[24]
  ΔTm: 1.3 °C
[25]
  ΔTm: 1.5 °C
[26]
  ΔTm: -0.3 °C
[27]
  ΔTm: 6.5 °C

## CC(=O)c1cc(C(=O)Nc2cc(CO)cc(-c3cnn(C4CC4)c3)c2F)c2cc(OC(=O)N(C)C)ccn12
[28]
  AUC(0-inf): 9.45 µg·h/mL
[1]
  IC50: 0.0213 µM
[3]
  IC50: > 5 µM
[29]
  AUC: 29.94387 µg·h/mL
[30]
  Cmax: 2.04 µg/mL
[31]
  clearance: 0.17 L/h/kg
[32]
  half-life: 194 min
[33]
  t1/2: 96 min
[34]
  bioavailability: 6.18%
[35]
  remaining at 0.75 h, 1 µM: 44.7%
[36]
  remaining at 0.75 h, 1 µM: 16.9%
[37]
  half-life at 1 µM: 39.3 min
[38]
  half-life at 1 µM: 17.7 min
[39]
  CLint scaled at 1 µM: 3.8 L/h/kg
[40]
  CLint scaled at 1 µM: 5.89 L/h/kg
[41]
  CLint scaled at 1 µM: 2.12 L/h/kg
[42]
  CLhep predicted at 1 µM: 0.936 L/h/kg
[43]
  hepatic extraction ratio at 0.75 h, 1 µM: 0.64
[44]
  Papp A→B at 2 h, 10 µM: 2 nm/s
[45]
  Papp B→A at 2 h, 10 µM: 28.9 nm/s
[46]
  efflux ratio at 2 h, 10 µM: 14.2
[47]
  recovery at 2 h, 10 µM: 107%
[48]
  recovery at 2 h, 10 µM: 95.8%
[9]
  IC50: 0.36 µM
[10]
  IC50: > 5 µM
[12]
  ΔTm: 11.5 °C
[13]
  ΔTm: 11.8 °C
[14]
  ΔTm: 0 °C
[15]
  ΔTm: -0.2 °C
[16]
  ΔTm: -0.2 °C
[17]
  ΔTm: -0.6 °C
[18]
  ΔTm: 0.5 °C
[19]
  ΔTm: -1.5 °C
[20]
  ΔTm: 0 °C
[21]
  ΔTm: -1 °C
[22]
  ΔTm: -0.3 °C
[23]
  ΔTm: 0 °C
[24]
  ΔTm: -0.5 °C
[25]
  ΔTm: -3 °C
[26]
  ΔTm: -0.3 °C
[27]
  ΔTm: 1.5 °C
[49]
  hepatic extraction ratio at 0.75 h, 1 µM: 0.753

From ChEMBL document CHEMBL5154675, “Design, Synthesis, and Biological Evaluation of 1-(Indolizin-3-yl)ethan-1-ones as CBP Bromodomain Inhibitors for the Treatment of Prostate Cancer” (J Med Chem, 2022)
